SMILES strings stand for the structures.

The target in this assay is T1, recombinant human NK3 receptor (Homo sapiens, UniProt P29371).
T1 construct: expressed in transfected cells; host or cells: HEK293 cells (transient expression), membranes
T1 sequence (P29371 1-465): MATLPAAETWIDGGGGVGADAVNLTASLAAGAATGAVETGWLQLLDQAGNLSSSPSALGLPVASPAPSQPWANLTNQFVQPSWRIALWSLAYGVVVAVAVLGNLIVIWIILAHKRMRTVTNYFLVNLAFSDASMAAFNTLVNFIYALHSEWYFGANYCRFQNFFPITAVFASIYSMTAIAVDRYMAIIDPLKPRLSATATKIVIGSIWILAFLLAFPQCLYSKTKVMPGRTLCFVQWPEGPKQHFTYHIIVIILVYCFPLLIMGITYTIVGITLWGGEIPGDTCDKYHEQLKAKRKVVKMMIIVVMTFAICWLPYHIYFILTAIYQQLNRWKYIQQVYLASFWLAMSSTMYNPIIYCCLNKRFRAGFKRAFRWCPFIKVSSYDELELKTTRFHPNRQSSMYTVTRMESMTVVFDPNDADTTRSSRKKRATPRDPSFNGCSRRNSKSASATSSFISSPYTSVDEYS
In words: [3H]SR142801 competition binding assay. Particulars: membranes from HEK293 cells transiently expressing recombinant human NK3 receptor; [3H]SR142801 radioligand; 75 min at RT; Ki by Cheng-Prussoff; read-out: Data Ki (hNK-3 receptor affinity). A digest of the protocol: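 Membranes from HEK293 cells transiently expressing the receptor, 5 μg protein/well, in 50 mM Tris-HCl pH 7.4 with 4 mM MnCl2, 1 μM phosphoramidon, 0.1% BSA; nonspecific binding defined with 10 μM SB222200. Filtration and scintillation counting; IC50 from Hill fit, Ki by Cheng-Prussoff using saturation-derived KD, duplicates.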
As for `Cc1noc(-c2ccc(C(=O)N3CCC(C(=O)N[C@@H](C)c4ccc(F)cc4)(c4ccc(F)cc4)CC3)cc2)n1` [Example 88, 4-(4-Fluoro-phenyl)-1-{4-(3-methyl-[1,2,4]oxa-diazol-5-yl)-benzoyl] piperidine-4-carboxylic acid [(S)-1-(4-fluoro-phenyl)-ethyl]-amide], the Ki – broadly, the equilibrium dissociation constant of an inhibitor or competing ligand from its target – was 0.0062 µM.
The value for `O=C(c1ccc(-c2ccc(F)cc2)cc1)N1CCC(C(=O)N[C@@H](CO)c2ccccc2)(c2ccc(F)cc2)CC1` [Example 140, 1-(4′-Fluoro-biphenyl-4-carbonyl)-4-(4-fluoro-phenyl)-piperidine-4-carboxylic acid ((R)-2-hydroxy-1-phenyl-ethyl)-amide] was 0.0078 µM.
As for `O=C(N1CCN(c2ccc(F)cc2)CC1)N1CCC(C(=O)NC(c2ccc(F)cc2)C(F)(F)F)(c2ccc(F)cc2)CC1` (stereo not drawn) [Example 176, 4-(4-Fluoro-phenyl)-1-[4-(4-fluoro-phenyl)-piperazine-1-carbonyl]-piperidine-4-carboxylic acid [2,2,2-trifluoro-1-(4-fluoro-phenyl)-ethyl]-amide], the Ki is 0.077 µM.
For `C[C@H](NC(=O)C1(c2ccccc2)CCN(C(=O)c2ccc(-c3ccccn3)cc2)CC1)c1ccccc1` [Example 6, 4-Phenyl-1-(4-pyridin-2-yl-benzoyl)-piperidine-4-carboxylic acid ((S)-1-phenyl-ethyl)-amide], the Ki stood at 0.0409 µM.
Regarding `CC(C)N(NC(=O)C1(c2ccc(F)cc2)CCN(C(=O)c2ccc(-c3ccc(F)cc3)cc2)CC1)c1ccc(F)cc1` [Example 185, 1-(4′-Fluoro-biphenyl-4-carbonyl)-4-(4-fluoro-phenyl)-piperidine-4-carboxylic acid N′-(4-fluoro-phenyl)-N′-ispropyl-hydrazide], the inhibition constant (Ki) came out at 0.0636 µM.
Regarding `CC[C@H](NC(=O)C1(c2ccccc2)CCN(C(=O)c2ccc(-c3nc(C)no3)cc2)CC1)c1ccccc1` [Example 83, 1-[4-(3-Methyl-[1,2,4]oxa-diazol-5-yl)-benzoyl]-4-phenyl-piperidine 4-carboxylic acid ((S)-1-phenyl-propyl)-amide], the Ki was determined as 0.0011 µM.
Take `C=C(C)CC1(C(=O)N[C@@H](C)c2ccc(F)cc2)CCN(C(=O)c2ccc(-c3ccc(F)cc3)cc2)CC1` [Example 113, 1-(4′-Fluoro-biphenyl-4-carbonyl)-4-(2-methyl-allyl)-piperidine-4-carboxylic acid [(S)-1-(4-fluoro-phenyl)-ethyl]-amide]: the inhibition constant (Ki) turned out to be 0.0356 µM.
Take `Cc1noc(C2CCN(C(=O)N3CCC(C(=O)N[C@@H](C)c4ccc(F)cc4)(c4ccccc4)CC3)CC2)n1` [Example 221, 1-[4-(3-Methyl-[1,2,4]oxadiazol-5-yl)-piperidine-1-carbonyl]-4-phenyl-piperidine-4-carboxylic acid [(S)-1-(4-fluoro-phenyl)-ethyl]-amide]: the Ki was determined as 0.0117 µM.
The value for `O=C(c1ccc(-c2ccc(F)cc2)cc1)N1CCC(C(=O)NC2(c3ccc(F)cc3)CC2)(c2ccc(F)cc2)CC1` [Example 135, 1-(4′-Fluoro-biphenyl-4-carbonyl)-4-(4-fluoro-phenyl)-piperidine-4-carboxylic acid [1-(4-fluoro-phenyl)-cyclopropyl]-amide] was 0.0267 µM; that for `C[C@H](NC(=O)C1(c2ccccc2)CCN(C(=O)c2ccc(-c3ccc(F)cc3)cc2)CC1)c1ccc(F)cc1` [Example 79, 1-(4′-Fluoro-biphenyl-4-carbonyl)-4-phenyl-piperidine-4-carboxylic acid [(S)-1-(4-fluoro-phenyl)-ethyl]-amide] was 0.0095 µM; that for `CC[C@H](NC(=O)C1(c2ccccc2)CCN(C(=O)c2ccc(-c3ccc(F)cc3)cc2)CC1)c1ccccc1` [Example 85, 1-(4′-Fluoro-biphenyl-4-carbonyl)-4-phenyl-piperidine-4-carboxylic acid ((S)-1-phenyl-propyl)-amide] was 0.0027 µM.
As for `C[C@H](NC(=O)C1(c2ccccc2)CCN(C(=O)N2CCN(C3CCCCC3)CC2)CC1)c1ccccc1` [Example 230, 1-(4-Cyclohexyl-piperazine-1-carbonyl)-4-phenyl-piperidine-4-carboxylic acid ((S)-1-phenyl-ethyl)-amide], the Ki came to 0.0221 µM.
With `O=C(N1CCN(c2ccc(F)cc2)CC1)N1CCC(C(=O)N[C@H](c2cccc(F)c2)C2CC2)(c2ccc(F)cc2)CC1` [Example 199, 4-(4-Fluoro-phenyl)-1-[4-(4-fluoro-phenyl)-piperazine-1-carbonyl]-piperidine-4-carboxylic acid [(S)-cyclopropyl-(3-fluoro-phenyl)-methyl]-amide], the inhibition constant Ki is 0.0051 µM.
For the molecule `Cc1nc(-c2ccc(C(=O)N3CCC(C(=O)NC(c4ccc(F)cc4)C(C)C)(c4ccc(F)cc4)CC3)cc2)no1` (stereo not drawn) [Example 164, 4-(4-Fluoro-phenyl)-1-[4-(5-methyl-[1,2,4]oxadiazol-3-yl)-benzoyl]-piperidne-4-carboxylic acid [1-(4-fluoro-phenyl)-2-methyl-propyl]-amide], the Ki was 0.012 µM.
The value for `C[C@H](NC(=O)C1(c2ccccc2)CCN(C(=O)c2ccc(-c3ccc(C#N)cc3)cc2)CC1)c1ccccc1` [Example 55, 1-(4′-Cyano-biphenyl-4-carbonyl)-4-piperidine-phenyl-4-carboxylic acid ((S)-1-phenyl-ethyl)-amide] was 0.0148 µM; that for `C[C@H](NC(=O)C1(c2ccccc2)CCN(C(=O)c2ccc(N3CCOCC3)nc2)CC1)c1ccccc1` [Example 10, 1-(6-Morpholin-4-yl-pyridine-3-carbonyl)-4-phenyl-piperidine-4-carboxylic acid ((S)-1-phenyl-ethyl)-amide] was 0.0768 µM.
On to `C[C@H](NC(=O)C1(c2ccccc2)CCN(C(=O)c2ccc(-c3cnco3)cc2)CC1)c1ccccc1` [Example 22, 1-(4-Oxazol-5-yl-benzoyl)-4-phenyl-piperidine-4-carboxylic acid ((S)-1-phenyl-ethyl)-amide], for which the inhibition constant Ki came out at 0.0658 µM.
On to `Cc1noc(-c2ccc(C(=O)N3CCC(C(=O)N[C@@H](C)c4ccc(F)cc4)(C4CCCCC4)CC3)cc2)n1` [Example 109, 4-Cyclohexyl-1-[4-(3-methyl-[1,2,4]oxa-diazol-5-yl)-benzoyl]-piperidine-4-carboxylic acid [(S)-1-(4-fluoro-phenyl)-ethyl]-amide], for which the Ki worked out at 0.082 µM.
Consider `C[C@H](NC(=O)C1(c2ccccc2)CCN(C(=O)c2ccc(-c3ccc(C(F)(F)F)cn3)cc2)CC1)c1ccccc1` [Example 45, 4-Phenyl-1-[4-(5-trifluorome-thyl-pyridin-2-yl)benzoyl]-piperidine-4-carboxylic acid ((S)-1-phenyl-ethyl)-amide], for which the Ki worked out at 0.0267 µM.
As for `C[C@H](NC(=O)C1(c2ccccc2)CCN(C(=O)c2ccc(-c3ccn(C)n3)cc2)CC1)c1ccccc1` [Example 69, l-[4-(1-Methyl-1 H-pyrazol-3-yl)-benzoyl]-4-phenyl-piperidine-4-carboxylic acid ((S)-1-phenyl-ethyl)-amide], the inhibition constant (Ki) was 0.0773 µM.
In the case of `C[C@H](NC(=O)C1(c2ccccc2)CCN(C(=O)c2ccc(-n3cnnn3)cc2)CC1)c1ccccc1` [Example 40, 4-Phenyl-1-(4-tetrazol-1-yl-benzoyl)-piperidine-4-carboxylic acid ((S)-1-phenyl-ethyl)-amide], the inhibitory constant (Ki) was determined as 0.0285 µM.

Source of the values: patent publication US8324250B2 (Hoffmann-La Roche Inc., priority 2009, dated 2012).
